# Tests used:
# [1] = Stability of analyte solutions and prepared samples, LC-MS/MS method validation; assay type: physicochemical; settings: room temperature
# Experimental: Plasma concentrations of liraglutide were analyzed using a validated, sensitive, and specific liquid chromatography–tandem mass spectrometry (LC-MS/MS) method developed by Shanghai WuXi AppTec New Drug Development Co. (Shanghai, China). Waters ACQUITY UPLC (Waters Corporation, United States) and AB Triple Quad 6500+ Mass Spectrometer (SCIEX Technologies, United States) combined with an electrospray ionization source were used for LC-MS/MS analysis. The internal standard of liraglutide was developed in-house. The chromatographic separation was performed on a C18 column (Waters) at 60°C with a flow rate of 600 μL/min. […] The linear range, limit of quantification, accuracy, precision, recovery, selectivity, and stability of the method were verified. The linear range of the analytical method for the determination of liraglutide in plasma was 1.00–250 ng/mL, and the lower limit of quantification (LLOQ) was 1.00 ng/mL. […] The analyte recoveries were determined using three gradients, high, medium, and low, with mean values of 48.0%, 47.6%, and 57.8%, respectively, corresponding to CVs of less than 8% and 57.3 for IS, corresponding to a CV of 5.1%. […] During analysis, plasma concentrations of liraglutide below the limit of quantification were listed as zero and missing values in PK samples before and after Tmax, respectively. […]
# [2] = ref US Food and Drug Administration, 2017, cited from earlier work
# Experimental: The lower dose on the steeper portion of the exposure–effect curve in healthy subjects was chosen to assess the difference between the subject drug and the reference drug ([CDER, 2014]), and therefore, 0.6 mg was selected as the dose to be administered in this comparative trial.
# [3] = ref US Food and Drug Administration, 2017, cited from earlier work; remark: listed apart in the source
# Experimental: In five double-blind clinical trials of 26 weeks or longer, the incidence of gastrointestinal adverse reactions in patients was reported to be 41% in the liraglutide treatment group and was dose-related ([US Food and Drug Administration, 2017]). This is consistent with the pharmacodynamic profile of GLP-1R agonist-related drugs. […] In five clinical trials of 26 weeks or longer ([US Food and Drug Administration, 2017]), approximately 50%–70% of Victoza-treated patients were tested for anti-liraglutide antibodies at the end of treatment. Approximately 8.6% of the liraglutide-treated group were detected with low-titer (no serum concentration dilution required) anti-liraglutide antibodies. When comparing all antibody-positive and all antibody-negative patients, antibody formation wa ...
# [4] = Safety and tolerability assessment (adverse events) in the crossover trial; assay type: in vivo, human; settings: single s.c. 0.6 mg
# Experimental: Subjects receiving the study drug were included in the safety assessment. The safety assessment included physical examination, vital signs (pre-dose and 1, 3, 12, 24, 48, and 72 h after administration of the study drug in the first and second cycles), laboratory tests, 12-lead electrocardiograms (pre-dose and 3, 24, 48, and 72 h after administration of the study drug in the first and second cycles), and blood glucose monitoring. Laboratory safety assessments were completed at the laboratory of Zhongshan Hospital, Fudan University, including routine blood, blood biochemistry, thyroid function, coagulation function, and urine routine tests. All adverse reactions were coded using MedDRA 21.0 terminology and categorized and analyzed according to SOC/PT.
# [5] = Pharmacokinetics and bioequivalence after a single subcutaneous injection, plasma liraglutide by LC-MS/MS; assay type: in vivo, human; settings: single s.c. 0.6 mg, N = 36
# Experimental: This trial was designed as a randomized, open, two-cycle, self-crossover trial. Screening was performed within 28 days prior to dosing, and eligible subjects were admitted to the Phase I Clinical Trial Ward in the afternoon of the first day prior to dosing and fasted for 10 h overnight after dinner. […] A total of 18 subjects received the test formulation in the first cycle, and the other 18 subjects received the reference formulation for administration and were crossover-administered for the second cycle of the study after a 14-day washout period. Drinking water was restricted for 1 h before and 1 h after dosing, water was drunk as needed at all other times, and a standardized nutritious meal was uniformly provided at least 4 h after dosing. The subjects were discharged from the hospital on the third day after dosing. Follow-up examinations were performed 72 h after the last dose of the second cycle.
# After collection, the tubes were inverted six times, centrifuged at 4°C, 1,460 g for 10 min, and the plasma was aliquoted and placed it the numbered cryopreservation tube. Plasma samples were stored in a refrigerator at −80°C before analysis.
# Waters ACQUITY UPLC (Waters Corporation, United States) and AB Triple Quad 6500+ Mass Spectrometer (SCIEX Technologies, United States) combined with an electrospray ionization source were used for LC-MS/MS analysis. […] The chromatographic separation was performed on a C18 column (Waters) at 60°C with a flow rate of 600 μL/min. The mobile phase A was 0.025% formic acid aqueous solution (v/v), and the mobile phase B was 0.025% formic acid acetonitrile aqueous solution (v/v). The linear range, limit of quantification, accuracy, precision, recovery, selectivity, and stability of the method were verified. […] In the concentration data listings, all missing data are indicated as “-” or NA (not applicable).
# The pharmacokinetic parameters, including Tmax, Cmax, AUC0-t, AUC0-∞, t1/2z, AUC_%Extrap, Vz/F, and CLz/F, were calculated using the non-compartmental model of WinNonlin 7.0. Descriptive statistical analysis was performed on PK parameters, and the arithmetic mean, standard deviation, coefficient of variation, maximum, minimum, and geometric mean of each parameter were calculated. If AUC_%Extrap >20%, the subject’s AUC0-∞, t1/2z, Vz/F, and CLz/F were not to be used for descriptive statistical analysis.
# Based on the blood concentration data, SAS 9.4 was used for statistical analysis. Cmax, AUC0-t, AUC0-∞, t1/2z, CLz/F, and Vz/F were logarithmically transformed and then analyzed using variance analysis (ANOVA). […] Two one-sided tests were performed for each parameter, and 90% CI of the geometric mean ratio (GMR) of the pharmacokinetic parameters (T/R) was calculated.
# [6] = system: dipeptidyl dipeptidase-4; settings: endogenous GLP-1, easily degraded by dipeptidyl dipeptidase-4; ref Drucker, 2003; cited from earlier work
# Text: GLP-1 is an endogenous incretin hormone secreted primarily by intestinal L-cells ([Drucker, 2006]; [Baggio and Drucker, 2007]; [Müller et al., 2019]), which is involved in the regulation of glucose homeostasis through GLP-1R, a G-protein-coupled receptor, in a variety of ways, mainly including stimulation of insulin secretion in a glucose-dependent manner, inhibition of glucagon secretion, reduction of appetite, slowing down of gastric emptying ([Drucker and Nauck, 2006]; [Hare et al., 2010]), enhancement of insulin sensitivity ([Fernández-Millán et al., 2016]; [Capuani et al., 2018]; [Jiang e ...
# [7] = single dose 0.6 mg subcutaneously
# [8] = healthy Chinese subjects, N = 36
compound,measurement,setting,value
"CCCCCCCCCCCCCCCC(=O)N[C@@H](CCC(=O)NCCCC[C@H](NC(=O)[C@H](C)NC(=O)[C@H](C)NC(=O)[C@H](CCC(N)=O)NC(=O)CNC(=O)[C@H](CCC(=O)O)NC(=O)[C@H](CC(C)C)NC(=O)[C@H](Cc1ccc(O)cc1)NC(=O)[C@H](CO)NC(=O)[C@H](CO)NC(=O)[C@@H](NC(=O)[C@H](CC(=O)O)NC(=O)[C@H](CO)NC(=O)[C@@H](NC(=O)[C@H](Cc1ccccc1)NC(=O)[C@@H](NC(=O)CNC(=O)[C@H](CCC(=O)O)NC(=O)[C@H](C)NC(=O)[C@@H](N)Cc1cnc[nH]1)[C@@H](C)O)[C@@H](C)O)C(C)C)C(=O)N[C@@H](CCC(=O)O)C(=O)N[C@@H](Cc1ccccc1)C(=O)N[C@H](C(=O)N[C@@H](C)C(=O)N[C@@H](Cc1c[nH]c2ccccc12)C(=O)N[C@@H](CC(C)C)C(=O)N[C@H](C(=O)N[C@@H](CCCNC(=N)N)C(=O)NCC(=O)N[C@@H](CCCNC(=N)N)C(=O)NCC(=O)O)C(C)C)[C@@H](C)CC)C(=O)O [Liraglutide, liraglutide]",Short-term stability (ULOQ) of the working solution,[1]; aqueous mixture of formic acid and acetonitrile,146.9 h
same,Stability of the biological samples after preparation,[1]; prepared plasma samples,21.5 h
same,Mean apparent volume of distribution,[2]; [7],approximately 13 L
same,Mean peak (Cmax),[2]; [7],35 ng/mL
same,Time to maximum concentration after dosing,[2]; [7],8 to 12 h
same,Total exposure (AUC),[2]; [7],960 ng·h/mL
same,Mean apparent clearance,"[2]; single dose, subcutaneous administration",approximately 1.2 L/h
same,Proportion of treated group with low-titer anti-liraglutide antibodies,"[3]; five clinical trials of 26 weeks or longer, end of treatment",Approximately 8.6%
same,Incidence of gastrointestinal adverse reactions,"[3]; patients, five double-blind clinical trials of 26 weeks or longer, dose-related",41%
same,Tolerability (in words),[4]; healthy Chinese subjects,well tolerated
same,"AEs leading to exit, Instance",[4]; [8],0
same,"AEs of grade 1 and above, Instance",[4]; [8],0
same,"Blurred right vision, Instance",[4]; [8],0
same,"Elevated blood glucose, Instance",[4]; [8],0
same,"Elevated free thyroxine, Instance",[4]; [8],1
same,"Elevated hypersensitivity thyroid-stimulating hormone, Instance",[4]; [8],1
same,"Hyperuricemia, Instance",[4]; [8],1
same,"Increased alanine aminotransferase, Instance",[4]; [8],0
same,"Increased urine leukocytes, Instance",[4]; [8],0
same,"Leukocyte increase, Instance",[4]; [8],1
same,"Serious AEs, Instance",[4]; [8],0
same,"AEs leading to exit, Number of cases (n%)","[4]; proportion of subjects, N = 36",0%
same,"AEs of grade 1 and above, Number of cases (n%)","[4]; proportion of subjects, N = 36",0%
same,"Blurred right vision, Number of cases (n%)","[4]; proportion of subjects, N = 36",0%
same,"Elevated blood glucose, Number of cases (n%)","[4]; proportion of subjects, N = 36",0%
same,"Elevated free thyroxine, Number of cases (n%)","[4]; proportion of subjects, N = 36",2.78%
same,"Elevated hypersensitivity thyroid-stimulating hormone, Number of cases (n%)","[4]; proportion of subjects, N = 36",2.78%
same,"Hyperuricemia, Number of cases (n%)","[4]; proportion of subjects, N = 36",2.78%
same,"Increased alanine aminotransferase, Number of cases (n%)","[4]; proportion of subjects, N = 36",0%
same,"Increased urine leukocytes, Number of cases (n%)","[4]; proportion of subjects, N = 36",0%
same,"Leukocyte increase, Number of cases (n%)","[4]; proportion of subjects, N = 36",2.78%
same,"Serious AEs, Number of cases (n%)","[4]; proportion of subjects, N = 36",0%
same,"Total AEs, Number of cases (n%)","[4]; proportion of subjects, N = 36",8.33%
same,Number of adverse reactions / AEs,[4]; 36 subjects per group,four
same,Number of possible related adverse reactions (times),[4]; 36 subjects per group,three
same,Subjects with adverse reactions (proportion),[4]; 36 subjects per group,8.33%
same,Subjects with adverse reactions / AEs (number of subjects),[4]; 36 subjects per group,Three
same,Subjects with possible related adverse reactions (number of subjects),[4]; 36 subjects per group,two
same,Subjects with possible related adverse reactions (proportion),[4]; 36 subjects per group,5.56%
same,Vd/F,"[5]; human, in vivo, sc, healthy Chinese subjects, plasma LC-MS/MS, non-compartmental, mean ± SD (%CV), read-out: Vz/F (apparent volume of distribution)",8.34 L
same,Geometric mean ratio (T/R) of Cmax,"[5]; test liraglutide injection versus Victoza, equivalence interval 80.00%–125.00%, 90% CI 99.54–108.10",103.73%
same,Geometric mean ratio (T/R) of AUC0-t,"[5]; test liraglutide injection versus Victoza, equivalence interval 80.00%–125.00%, 90% CI 99.85–106.26",103.01%
same,Geometric mean ratio (T/R) of AUC0-∞,"[5]; test liraglutide injection versus Victoza, equivalence interval 80.00%–125.00%, 90% CI 100.04–106.11",103.03%
GLP-1: Endogenous incretin hormone secreted primarily by intestinal L-cells,Effective half-life,[6],only a few minutes
